Assay results published in PMC9918186, “Interaction of Positively Charged Oligopeptides with Blood Plasma Proteins” (International Journal of Molecular Sciences, 2023).

Biological target: T1, BSA (Bos taurus, UniProt P02769)
T1 construct: purchased Sigma Aldrich
Experiment: ATR-FTIR Amide I deconvolution, secondary structure of BSA with peptide
Set-up: species or system bovine
Settings: for Random Coil of BSA / β-Anti of BSA / β-Sheet of BSA / β-Turn of BSA / α-Helix of BSA: ATR-FTIR Amide I
Excerpt: The perturbation in protein structure conformation can be monitored by CD spectroscopy as well as the ATR-FTIR method. These secondary structure changes are confirmation of the interaction between the studied compound and the protein [64, 65, 66, 67]. The range of the wavenumber from 1700 to 1000 cm^−1 is the most varied region and with the richest information on protein spectra. The most characteristic bands are Amide I and Amide II, which originate from the C=O stretching vibration and C–N– stretching coupled with N–H bending, respectively. Amide I was detected for BSA at 1652 cm^−1 and GGF at 1637 cm^−1 (Figure 4). The differences in the position of these bands are connected with the variety in the secondary structure conformation, while Amide II consistently occurred at 1545 and 1546 cm^−1 on the BSA and GGF spectra, respectively (Figure 4). The much less intense peak of Amide III usually accrued by C–N– stretching and bending vibration was only noticed in the BSA spectrum at 1307 cm^−1 (Figure 4). The peaks detected at 1454 cm^−1 (BSA) and 1452 cm^−1 (GGF) appeared by CH3 group symmetric and asymmetric bending vibration (δs, δas). The absorption signal 1400 cm^−1 may be assigned to stretching vibration (ν) caused by the carboxylic group (COO^−). The studied peptides interact with BSA and GGF, which is manifested by a reduction in the intensity of the absorption peaks (Figure 4). With the increase in the ligand concentration in the protein solution, the intensity of the absorption peaks decreased (Figure 4). The Amide I and II in the BSA spectrum decreased above all after binding with L1 and slightly in the samples from L2 and L3. […] Moreover, after the complexation of the investigated peptides with GGF, an increase in the band 1060 cm^−1 was responsible for stretching vibration C–O absorption, which was manifested the most by L2 and L3 compounds.
The shape and intensity variation in the Amide I band is the confirmation of peptide L1, L2, and L3 interaction with the protein’s backbone. The hydrogen bonds in the protein structure are violated after the active molecules’ binding and influence the frequency of the C=O vibrations’ absorption. The frequency of stretching vibrations can be reduced after changes in hydrogen bonding in the protein, whereas the frequency of bending vibrations can be increased after ligand to protein complexation. The Byler and Susi procedure was used to analyse the secondary structure protein conformation. The quantity analysis of the secondary structure in the protein is mostly conducted based on Amide I deconvolution, and it is the most frequently analyzed vibration band, which is very vulnerable to the detection of changes in the structure. The fragment of each normalized spectrum with the Amide I peak was extracted and a second derivate was made. The self-deconvolution and curve fitting by the Gaussian/Lorenzian function allowed determination of the intensity and total area under the peaks, which corresponds with the contribution of the type of structure. The position of each band component may be assigned to a corresponding shape of the secondary structure: the α-helix (1660–1647 cm^−1), β-sheet (1640–1610 cm^−1), β-turn (1660–1680 cm^−1), β-antiparallel (1681–1695 cm^−1), and random coil (1650–1630 cm^−1) structures.
The infrared spectra were measured on Nicolet iS50 FTIR (Thermo Scientific, Waltham, MA, USA) spectrometer equipped with Attenuated Total Reflectance (ATR) accessory. The deuterated triglicyne sulphate (DTGS) detector and KBr beam splitter were applied. The spectral data were recorded within the range of 4000 to 600 cm^−1 with a resolution of 4 cm^−1 and 100 scans were averaged for each spectrum. The measurements were accomplished at room temperature. The concentration of blood plasma proteins BSA (Sigma Aldrich, USA), and GGF (Sigma Aldrich, USA) were 6.5 × 10^−4 moldm^−3. […]

T1 sequence (P02769 25-607): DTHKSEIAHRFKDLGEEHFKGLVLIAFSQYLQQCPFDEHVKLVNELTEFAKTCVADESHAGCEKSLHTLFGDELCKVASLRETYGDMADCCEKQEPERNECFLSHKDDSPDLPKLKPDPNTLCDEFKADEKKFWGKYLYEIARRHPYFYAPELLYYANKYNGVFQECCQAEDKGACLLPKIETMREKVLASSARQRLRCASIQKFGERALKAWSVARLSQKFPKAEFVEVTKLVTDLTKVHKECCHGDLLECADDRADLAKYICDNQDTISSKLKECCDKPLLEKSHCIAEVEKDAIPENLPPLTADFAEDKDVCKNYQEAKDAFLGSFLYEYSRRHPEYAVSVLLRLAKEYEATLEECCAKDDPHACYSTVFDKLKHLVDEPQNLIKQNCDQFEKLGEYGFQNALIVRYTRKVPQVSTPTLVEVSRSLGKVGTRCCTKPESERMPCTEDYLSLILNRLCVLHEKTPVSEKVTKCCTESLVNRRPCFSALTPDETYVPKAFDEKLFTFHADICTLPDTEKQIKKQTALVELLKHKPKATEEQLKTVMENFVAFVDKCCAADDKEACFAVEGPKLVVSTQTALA

- Random Coil of BSA (BSA/peptide 1:0.5): 26.54%
- β-Anti of BSA (BSA/peptide 1:0.5): 0.77%
- β-Sheet of BSA (BSA/peptide 1:0.5): 3.87%
- β-Turn of BSA (BSA/peptide 1:0.5): 7.47%
- α-Helix of BSA (BSA/peptide 1:0.5, BSA 6.5 × 10^−4 M, room temperature): 61.36%
- Random Coil of BSA (BSA/peptide 1:1.0): 27.93%
- α-Helix of BSA (BSA/peptide 1:1.0): 49.45%
- β-Anti of BSA (BSA/peptide 1:1.0): 0.49%
- β-Sheet of BSA (BSA/peptide 1:1.0): 8.28%
- β-Turn of BSA (BSA/peptide 1:1.0): 13.86%
- Random Coil of BSA (BSA/peptide 1:1.5): 27.61%
- α-Helix of BSA (BSA/peptide 1:1.5): 49.40%
- β-Anti of BSA (BSA/peptide 1:1.5): 0.31%
- β-Sheet of BSA (BSA/peptide 1:1.5): 8.69%
- β-Turn of BSA (BSA/peptide 1:1.5): 13.99%
- differences in the secondary structure of BSA (ATR-FTIR, after peptide addition): 16%
- decrease of β-antiparallel framework of albumin (ATR-FTIR, versus free BSA): about 2%
- growth of β-sheet of albumin (ATR-FTIR, versus free BSA): 7.05%
- growth of β-turn of albumin (ATR-FTIR, versus free BSA): 7.34%
- increase in the share of the random structure of albumin (ATR-FTIR, versus free BSA): 2%
- reduction in the α-helix of albumin (ATR-FTIR, versus free BSA): more than 14%
Substance: Lys-Dab-Dab-Gly-Orn-Pro-His-Lys-Arg-Lys-Dbt [L1]
